In US11028087B2, “2,6-disubstituted-9-cyclopentyl-9H-purines, use thereof as medicaments, and pharmaceutical compositions” (UNIVERZITA PALACKEHO V OLOMOUCI, priority 2017, dated 2021):

Columns and labels:
[1] = tested on: EOL-1 (eosinophilic leukaemia, carrying the fusion FIP1L1-PDGFRA); assay: Calcein AM cytotoxicity assay; assay type: cell-based; conditions: Homo sapiens, EOL1, 72 h; EOL-1; Calcein AM, three days; read-out: EC50 values (μM) EOL-1
Description: (§1) Cytotoxicity of the compounds is the major property determining their anticancer effect in vivo. One of the parameters used, as the basis for cytotoxicity assays, is the integrity of cytoplasmic membrane of viable cells. For example, a microtiter assay, which uses acetomethoxy derivate of calcein (Calcein AM), is widely used for evaluation of cell proliferation and cytotoxicity. This assay is used in drug screening programs and in chemosensitivity testing. Intracellular esterases of viable cells convert calcein AM to green-fluorescent calcein of which signal corresponds to the number of viable cells in the culture.
(§2) We have been using the following cell lines: MV4-11 (acute myeloid leukemia, FLT3-ITD positive), MOLM-13 (acute myeloid leukemia, FLT3-ITD positive), THP-1 (acute myeloid leukemia, wt FLT3), U937 (monocytic leukemia, wt FLT3), EOL-1 (eosinophilic leukaemia, carrying the fusion FIP1L1-PDGFRA), H1703 (non-small cell lung carcinoma, PDGFRA amplification). […] K562 and MCF-7 cell lines were maintained in DMEM supplemented with 10% fetal bovine serum, penicilin (100 U/ml) and streptomycin (100 μg/ml). All cell lines were cultivated at 37° C. in 5% CO2. For cytotoxicity assays, cells were seeded in appropriate densities into 96 well plates and the next day tested compounds were added at various concentrations in triplicates. Three days after drug addition, Calcein AM solution (final concentration 1 μg/ml; Thermo Scientific, USA) was added into each well and incubated for 1 h.

[2] = tested on: MV4-11 (acute myeloid leukemia, FLT3-ITD positive); assay: Calcein AM cytotoxicity assay; assay type: cell-based; conditions: Homo sapiens, 72 h; MV4-11; Calcein AM, three days after drug addition; read-out: EC50 values (μM) MV4-11
Description: as §1, §2

[3] = biological target: T1, CDK2/Cyclin E (Homo sapiens, UniProt P24941); assay: Kinase inhibition assay with [γ-33P]ATP; assay type: biochemical; conditions: histone H1, 15 μM ATP; read-out: IC50 values (μM) CDK2
T1 construct: made in house; host or cells: Sf9 insect cells, baculoviral infection
Protocol: (§3) CDK1/Cyclin B and CDK2/Cyclin E kinases were produced in Sf9 insect cells via baculoviral infection and purified on a NiNTA column (Qiagen). CDK5/p35 and CDK7Cyclin H/MAT1, FLT3 WT, FLT3-ITD and FLT3 D835 were purchased from ProQinase GmbH. The kinase reactions were assayed with 1 mg/mL histone H1 (for CDK1, CDK2 and CDK5), (YSPTSPS)2KK peptide (for CDK7) or AGLT substrate (for FLT3) in the presence of 15/15/0.15/1.5/1 μM ATP (for CDK1/CDK2/CDK5/CDK7/FLT3), 0.05 μCi [γ-^33P]ATP and of the test compound in a final volume of 10 μL, all in a reaction buffer (60 mM HEPES-NaOH, pH 7.5, 3 mM MgCl2, 3 mM MnCl2, 3 μM Na-orthovanadate, 1.2 mM DTT, 2.5 μg/50 μl PEG20,000). The reactions were stopped by adding 5 μL of 3% aq H3PO4. Aliquots were spotted onto P-81 phosphocellulose (Whatman), washed 3× with 0.5% aq H3PO4 and finally air-dried.

[4] = tested on: K562; assay: Calcein AM cytotoxicity assay; assay type: cell-based; conditions: Homo sapiens, 72 h; K562; Calcein AM, three days; read-out: EC50 values (μM) K562
Description: as §1, §2

[5] = tested on: MCF-7; assay: Calcein AM cytotoxicity assay; assay type: cell-based; conditions: Homo sapiens, MCF7, 72 h; MCF-7; Calcein AM, three days; read-out: EC50 values (μM) MCF-7
Description: as §1, §2

[6] = tested on: MOLM-13 (acute myeloid leukemia, FLT3-ITD positive); assay: Calcein AM cytotoxicity assay; assay type: cell-based; conditions: Homo sapiens, 72 h; MOLM-13; Calcein AM, three days; read-out: EC50 values (μM) MOLM-13
Description: as §1, §2

[7] = tested on: THP-1 (acute myeloid leukemia, wt FLT3); assay: Calcein AM cytotoxicity assay; assay type: cell-based; conditions: Homo sapiens, 72 h; THP-1; Calcein AM, three days; read-out: EC50 values (μM) THP-1
Description: as §1, §2

[8] = tested on: U937 (monocytic leukemia, wt FLT3); assay: Calcein AM cytotoxicity assay; assay type: cell-based; conditions: Homo sapiens, U-937, 72 h; U937; Calcein AM, three days; read-out: EC50 values (μM) U937
Description: as §1, §2

[9] = tested on: Kasumi-1 (acute myeloid leukemia, KIT mutation Asn822Lys); assay: Calcein AM cytotoxicity assay; assay type: cell-based; conditions: Homo sapiens, 72 h; Kasumi-1; Calcein AM, three days; read-out: EC50 values (μM) Kasumi-1
Description: as §1
We have been using the following cell lines: MV4-11 (acute myeloid leukemia, FLT3-ITD positive), MOLM-13 (acute myeloid leukemia, FLT3-ITD positive), THP-1 (acute myeloid leukemia, wt FLT3), U937 (monocytic leukemia, wt FLT3), EOL-1 (eosinophilic leukaemia, carrying the fusion FIP1L1-PDGFRA), H1703 (non-small cell lung carcinoma, PDGFRA amplification). They were maintained in RPMI-1640 supplemented with 10% fetal bovine serum, penicillin (100 U/ml) and streptomycin (100 μg/ml). Kasumi-1 (acute myeloid leukemia, KIT mutation Asn822Lys) cells were cultivated in RPMI-1640 supplemented with 15% fetal bovine serum, penicillin (100 U/ml) and streptomycin (100 μg/ml). K562 and MCF-7 cell lines were maintained in DMEM supplemented with 10% fetal bovine serum, penicilin (100 U/ml) and streptomycin (100 μg/ml). All cell lines were cultivated at 37° C. in 5% CO2. For cytotoxicity assays, cells were seeded in appropriate densities into 96 well plates and the next day tested compounds were added at various concentrations in triplicates. Three days after drug addition, Calcein AM solution (final concentration 1 μg/ml; Thermo Scientific, USA) was added into each well and incubated for 1 h. After this incubation period, fluorescence of the live cells was measured at 485 nm/538 nm (ex/em) with a Fluoroskan Ascent microplate reader (Labsystems).

[10] = biological target: T2, FLT3 WT (Homo sapiens, UniProt P36888); assay: Kinase inhibition assay with [γ-33P]ATP; assay type: biochemical; conditions: AGLT substrate, 1 μM ATP
T2 construct: purchased ProQinase GmbH
T2 sequence (P36888 27-993): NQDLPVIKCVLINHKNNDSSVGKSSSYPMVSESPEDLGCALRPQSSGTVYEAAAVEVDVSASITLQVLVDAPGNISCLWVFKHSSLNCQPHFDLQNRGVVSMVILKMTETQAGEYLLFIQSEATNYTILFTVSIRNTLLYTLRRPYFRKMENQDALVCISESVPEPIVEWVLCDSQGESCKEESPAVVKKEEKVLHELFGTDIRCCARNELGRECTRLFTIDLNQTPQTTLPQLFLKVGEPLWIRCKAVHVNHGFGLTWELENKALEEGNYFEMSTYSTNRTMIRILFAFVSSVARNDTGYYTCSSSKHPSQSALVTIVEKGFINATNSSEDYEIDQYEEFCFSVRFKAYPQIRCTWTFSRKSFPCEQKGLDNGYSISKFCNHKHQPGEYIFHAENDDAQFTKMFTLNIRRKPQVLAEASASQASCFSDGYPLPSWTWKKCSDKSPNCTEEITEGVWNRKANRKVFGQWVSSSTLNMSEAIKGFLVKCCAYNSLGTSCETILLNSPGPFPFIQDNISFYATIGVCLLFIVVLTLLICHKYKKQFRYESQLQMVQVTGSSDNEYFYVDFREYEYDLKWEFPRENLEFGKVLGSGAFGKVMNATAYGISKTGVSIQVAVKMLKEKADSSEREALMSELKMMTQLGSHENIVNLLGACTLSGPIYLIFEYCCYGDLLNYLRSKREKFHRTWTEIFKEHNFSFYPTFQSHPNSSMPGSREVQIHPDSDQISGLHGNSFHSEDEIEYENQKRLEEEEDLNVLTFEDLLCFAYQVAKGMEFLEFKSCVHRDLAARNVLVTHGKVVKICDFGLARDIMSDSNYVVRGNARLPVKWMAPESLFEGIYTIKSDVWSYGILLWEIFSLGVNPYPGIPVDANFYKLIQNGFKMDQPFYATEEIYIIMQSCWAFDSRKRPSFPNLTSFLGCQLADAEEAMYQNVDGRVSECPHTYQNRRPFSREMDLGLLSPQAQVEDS
Protocol: as §3

Compound | IC50 [3] [µM] | EC50 [1] [µM] | EC50 [2] [µM] | EC50 [4] [µM] | EC50 [5] [µM] | EC50 [6] [µM] | EC50 [7] [µM] | EC50 [8] [µM] | EC50 [9] [µM] | IC50 [10] [µM]
c1cc(N2CCOCC2)ncc1Nc1nc(N2CCOCC2)nc2c1ncn2C1CCCC1 [Compound 46] | 0.951 | 0.377 | 0.02 | – | – | – | – | – | – | –
CN1CCN(c2nc(Nc3ccc(N4CCNCC4)nc3)c3ncn(C4CCCC4)c3n2)CC1 [Compound 58] | – | 0.056 | 0.017 | 0.695 | 0.44 | 0.017 | 1.13 | 0.794 | 0.492 | –
NC(=O)CCNc1nc(Nc2ccc(C(=O)N3CCOCC3)nc2)c2ncn(C3CCCC3)c2n1 [Compound 149] | – | – | 0.007 | 1.17 | 0.688 | – | – | – | 1.01 | –
CN(C)CCCCNc1nc(Nc2ccc(C(=O)N3CCOCC3)cc2)c2ncn(C3CCCC3)c2n1 [Compound 182] | 0.005 | 0.04 | 0.002 | 4.21 | 1.59 | 0.017 | 1.5 | 0.631 | 1.68 | 0.013

Continued, in another order:

IC50 [3] [µM] | Compound | EC50 [1] [µM] | EC50 [2] [µM] | EC50 [4] [µM] | EC50 [5] [µM] | EC50 [6] [µM] | EC50 [7] [µM] | EC50 [8] [µM] | EC50 [9] [µM] | IC50 [10] [µM]
0.028 | CCN1CCN(C(=O)c2ccc(Nc3nc(N4CCN(C)CC4)nc4c3ncn4C3CCCC3)cn2)CC1 [Compound 60] | – | – | – | – | – | – | – | – | 0.021
2.6 | CCN1CCN(C(=O)c2ccc(Nc3nc(NCCCC(N)=O)nc4c3ncn4C3CCCC3)cn2)CC1 [Compound 155] | – | 0.164 | 5.17 | 4.71 | – | – | – | – | –
0.006 | NC(=O)CCCCNc1nc(Nc2ccc(N3CC4(CNC4)C3)cc2)c2ncn(C3CCCC3)c2n1 [Compound 156] | – | 0.001 | 0.84 | 0.697 | – | – | – | – | –
16.4 | CN(C)CCCNc1nc(Nc2ccc(N3CCN(C)CC3)cc2)c2ncn(C3CCCC3)c2n1 [Compound 174] | – | – | – | – | – | – | – | – | –
